Assay results: patent publication US4937229A, “Pineapple ketone carbonate derivatives” (priority 1989, dated 1990)
Where two headings read alike, the source gives them in different places.

Key:
[1] = 0 min
Description: (§1) Solutions containing respectively 10 percent carbonate and ten percent pineapple ketone in toluene are stirred in loosely capped vials at ambient temperature. Samples are taken periodically and the concentration of carbonate or ketone remaining determined by GLC (6'×1/8", 15% Carbowax-20M on 80/100 Chromasorb W, Helium=28 cc/min, 100°-210° at 8°/min). The experiment is repeated using ethanol as solvent.

[2] = physchem; conditions: toluene
Description: as §1

% Remaining [1] [%] | remaining at 21 h [2] [%] | remaining at 46 h [2] [%] | remaining at 69 h [2] [%] | remaining at 149 h [2] [%] | remaining at 173 h [2] [%] | % Remaining (0 min) [%] | remaining at 48 h [2] [%] | remaining at 72 h [2] [%] | remaining at 172 h [2] [%] | % Remaining (toluene, 15 h) [%] | % Remaining (toluene, 41 h) [%] | % Remaining (toluene, 116 h) [%] | % Remaining (toluene, 138 h) [%] | Compound
100 | 100 | 100 | 100 | 100 | 100 | 100 |  |  |  |  |  |  |  | CCOC(=O)OC1=C(C)OC(C)C1=O (stereo not drawn) [Example 1, ETHYL 2,5-DIMETHYL-3-OXO-4(2H)-FURYL CARBONATE]
100 | 100 |  |  | 8 |  | 100 | 58 | 30 | 9 | 24 | 18 | 6 | 4 | CC1=C(O)C(=O)C(C)O1 (stereo not drawn) [Pineapple ketone, 2,5-dimethyl-4-hydroxy-3(2H)-furanone]
